We go through three substances from publication PMC8599855, “Detection of cancer stem cells by EMT-specific biomarker-based peptide ligands” (Scientific Reports, 2021).

Data set [1] deals with SAS cells. The data set is described as follows: Fluorescence-based peptide binding assay (confocal microscopy). The following applies: 50 ng/μl labeled peptide, 37 °C; for Cell uptake: fluorescent signal in cytoplasm: one hour and later. The format is cell-based, human. Here is the method:
Figure 1 Evaluation of peptide binding activity to SAS cells. (a) IF analysis of F7 peptide and SP peptide binding to SAS cells. […] Red: Lissamine Rhodamine labeled F7 peptide, Green: FITC labeled SP peptide, Blue: DAPI; BF, bright field; Scale bar, 10 μm. (b) The kinetics of F7 peptide binding to SAS-EGFP-Fluc cells. Cells were incubated in the presence of 50 ng/μl peptides at 37 °C for the indicated periods of time. (c) The kinetics of SP peptide binding to SAS-E2-crimson-P2A::ttksr39 cells at indicated time points.
SAS-EGFP-Fluc and SAS-E2-crimson-P2A::ttksr39 were seeded on 8-well chamber slides and incubated with fluorescein labeled F7 peptide and SP peptide respectively for the different time points (0, 0.25, 0.5, 1, 2, 4, 8, 12 and 24 h). HEK293 cell lines without expression of vimentin and nucleolin served as a negative control for the specificity of peptides. After removal of the medium and a PBS rinse, the cells were fixed with 3.7% paraformaldehyde for 10 min followed by PBS washing for 3 times. Subsequently, all slides were mounted with VECTASHIELD Mounting Medium with DAPI (cat. H-1200, Vector Labs, Burligame, CA, USA) and covered with cover glasses before visualization under a laser-scanning microscope (Zeiss LSM 880, Jena, Germany) with Zen Blue software (ZEISS, Jena, Germany).

Data set [2] has as its system SAS spheres expressing CD44. Kind of data set: Peptide binding to tumor spheres (confocal microscopy). Type of data set: cell-based, human. The following applies: fluorescein-labeled peptides, 24 h incubation. From the text: Figure 2 Expression of CSC markers corresponding to peptide binding. (a) Phase-contrast photomicrographs of the spheres cultured from SAS-E2-crimson-P2A::ttksr39 cell line using the ultra-low attachment plate. Right panel: adherent cells. magnification, 100×. (b) ICC results showing the expression of representative CSC marker, CD44 and EMT markers, vimentin and nucleolin in spheres (upper panel) and adherent cells (lower panel). E-cadherin is an epithelial cell marker. (c) The peptide binding to tumor spheres which highly expressed CD44. The arrow indicates the presence of F7 and SP peptide. Red: Lissamine Rhodamine labeled F7 peptide, Green: FITC labeled SP peptide, Blue: DAPI; Scale bar, 20 μm. (d) Comparison of peptides binding to spheres and adherent cells. Yellow: colocalization.
SAS cells were seeded in a 6-well cell culture plate with ultra-low attachment (Corning Costar, Tewksbury, MA, USA) at the density of 1 × 10^5 cells/well and incubated for 3–5 days in a 5% CO2 humidified incubator at 37 °C. All measurements on the SAS spheroids were carried out with a diameter of approximately 0.75 mm. For ICC-IF staining, the spheroids were fixed in 3.7% paraformaldehyde, washed with PBS and permeated with 0.1% Triton X-100 for 10 min before blocking with 20% FBS for 10 min at 37 °C, followed by the incubation with anti-CD44 antibody (GTX102111, GeneTex, Irvine, CA, USA) at 4 °C overnight. […]

Data set [3] deals with EMT-induced SAS cells. Kind of data set: Flow cytometry analysis of peptide binding to EMT-induced cells. Type of data set: cell-based, human. The note with it: 50 ng/μl labeled peptide, 24 h, 37 °C, after Unc0642 and/or IR treatment. Here is the method: Figure 4 Evaluation of peptide binding activity to EMT derived cells induced by Unc0642/IR. After treatment of Unc0642 or radiation, EMT derived cells were incubated for 24 h in the presence of 50 ng/μl of fluorescein-labeled F7 (a) and SP peptide (b) at 37 °C respectively. FACS analysis was performed on gated live cells and light scatter parameters were measured using the 488 nm laser. The dot plot represented the particle size (FSC) versus granularity (SSC) of the cell population. The histogram represented the number of cells from P1 and P2 regions displaying a given fluorescence signal. Right graph: the quantitative analysis in the ratio of fluorescein-labeled peptides binding to SAS cells.
The cells were treated for EMT induction as described above. Then, 50 ng/μl of F7 and SP peptides were added into the culture medium and co-incubated for 24 h. The cells were detached and fixed with 3.7% paraformaldehyde for 15 min followed by resuspension in PBS. FACS analysis was performed on gated live cells using a flow cytometer (Beckman Coulter CytoFLEX, Brea, CA, USA).
Background: A flow cytometer gives signals particle by particle.

Data set [4] has as its system SAS xenograft tumor. The data set is described as follows: Peptide binding in tumor after intra-tumoral injection (IF of excised tumor). The following applies: intra-tumoral injection on day 31, tumors excised after 24 h; Unc0642/IR-treated groups versus control; F7 in SAS-EGFP-Fluc, SP in SAS-wt tumors. The format is in vivo, mouse. From the text: Figure 5 Evaluation of peptide binding ability in SAS xenograft mouse model after the treatment of Unc0642/IR. (a) Schematic diagram for in vivo EMT induction via the treatment of Unc0642 and radiation. (b) Evaluation of the effect of Unc0642/IR in SAS-EGFP-Fluc-bearing mice by optical bioluminescence image. (c) Tumor burden of each group was monitored at indicated time points. Data represent mean ± SD (n = 5–6/group). *p < 0.05, **p < 0.01, ***p < 0.001 by Student’s t-test. ***p = 0.00058, Ctrl versus Unc0642 on day 14; *p = 0.049, Ctrl versus IR on day 18; **p = 0.0023, Ctrl versus IR on day 21; *p = 0.0179, Ctrl versus IR on day 24; *p = 0.036, Ctrl versus Unc0642 + IR on day 24. (d) The body weights of mice were recorded during the period of monitoring. Data are mean ± SD (n = 5–6/group). (e, f) Mice were given an intra-tumoral injection of peptide. At 24 h later, tumor samples were excised and the signal derived from the peptide was observed using confocal microscopy. Representative confocal micrographs of tissue sections immunolabeled with CD44. The arrowheads indicate the presence of F7 and SP peptide. Blue: DAPI. Scale bar, 20 μm. […]

The conditions of data set [5]: 37 °C, ref previous studies; cited from earlier work. From the text: Despite the cancer cells captured by F7 or SP peptide were identified as CSCs that expressed CD44, single peptide binding cells (F7+ or SP+) and double peptides binding cells (F7+ /SP+ , as shown in Fig. 2d) were considered as different subpopulations that exist at the different stages of cancer. […] There are several possibilities for these findings. First, the permeability ...

The test system of data set [6] is SAS cells. The data set is described as follows: Western blot of EMT/CSC markers after in vitro induction of EMT. The format is cell-based, human. The following applies: TGF-β1 10 and 20 ng/ml, SAS cells, immunoblotting (Fig. S2). As for the experimental part: To induce the EMT of SAS cells, cells were seeded in 60 mm^2 dishes at the density of 1 × 10^6 cells/dish overnight and incubated with 1.25 and 10 μM Unc0642. After 24 h, cells were exposed under 2 Gy and 4 Gy of radiation by a RS2000 Series Biological Irradiator (Rad Source Technologies Inc, Buford, GA, USA) and replaced with fresh Unc0642 containing medium every 24 h. The expression of vimentin and E-cadherin were detected by western blotting.
Cultured cells were placed on ice, washed by ice-cold PBS and lysed using CytoBuster Protein Extraction Reagent (cat. 71,009, Bedford, MA, USA) containing Protease Inhibitor Cocktail Set I (cat. 539131, Millipore, Bedford, MA, USA). Cells were then scraped, collected in Eppendorf tubes and the sonicated for 30 min. The lysate was spun down at 12,000 g for 10 min at 4 °C. The protein content was measured using Bradford reagent (BIO-RAD, Hercules, CA, USA). The equal amounts of protein (40 μg) were separated in SDS-PAGE gels (30% Acrylamide/Bis Solution, 29:1, cat. 1610157, BIO-RAD, Hercules, CA, USA) and transferred to PVDF membranes (cat. NEF1002001PK, Perkin-Elmer life sciences, Boston, MA, USA). For immunoblotting, membranes were cut in terms of the molecular weight range prior to hybridization with primary antibody for vimentin (GTX100619, GeneTex, Irvine, CA, USA), nucleolin (GTX132778, GeneTex, Irvine, CA, USA), E-cadherin (GTX50757, GeneTex, Irvine, CA, USA) and b-actin (GTX109639, GeneTex, Irvine, CA, USA) overnight at 4 °C and then incubated with horseradish peroxidase HRP-conjugate goat anti-rabbit IgG (GeneTex, Irvine, CA, USA). Protein signals were visualized using a LumiFast Chemiluminescence Detection Kit (cat. JT96-K001S, T-Pro Biotechnology, Taiwan). Image capture was performed on an ImageQuant LAS4000 biomolecular image (GE healthcare life, Chicago, IL, USA). The intensities of protein bands were quantitated using ImageJ Gel Analysis program. Quantification of protein expression was performed by Image J. b-actin was used as loading control.
For orientation: A western blot detects proteins with antibodies after separation by electrophoresis.

Turning to DMPGTVLP [F7 peptide], in data set [1], the “Intracellular localisation at 24 h” value was “remained at the edge of nucleus and no longer moved”; the “Cell uptake: fluorescent signal in cytoplasm” value is “appeared in cytoplasm gradually and accumulated with the incubation time”. In data set [2], the “Binding to CD44 expressing spheres” value was “able to bind and detect CSCs”. The “Peptide binding to EMT-induced SAS cells (FACS)” value in data set [3] is “increased with increasing dose of IR and Unc0642”. The “Amount of labeled peptide in tumor tissue” value in data set [4] is “increased in tumor tissues”. The “Stability in the presence of serum” value in data set [5] is on record as “high stability”.

In the case of SAHGTSTGVPWP [SP peptide], in data set [1], the “Intracellular localisation at 24 h” value is “remained at the edge of nucleus and no longer moved”; the “Cell uptake: fluorescent signal in cytoplasm” value was “appeared in cytoplasm gradually and accumulated with the incubation time”. Moreover, the “Binding to CD44 expressing spheres” value in data set [2] is “able to bind and detect CSCs”. Further, the “Peptide binding to EMT-induced SAS cells (FACS)” value in data set [3] was “significantly higher in combined Unc0642- and IR-treated SAS cells”. The “Amount of labeled peptide in tumor tissue” value in data set [4] is given as “increased in tumor tissues”. Moreover, the “Stability in the presence of serum” value in data set [5] was “high stability”.

As to “TGF-β1: multifunctional cytokine used to induce EMT”, in data set [6], the E-cadherin expression result is reported as “downregulated the expression of E-cadherin” and the Vimentin expression result is reported as “upregulated the expression of vimentin”.
